# Test system: MDCK cells
# Test: HGF-induced epithelial-mesenchymal transition / migration of MDCK cells on transwell filters (crystal violet densitometry)
# Format: cell-based
# Conditions: then HGF, percentage like untreated controls (unstimulated cells = maximal effect, HGF only = nil); for Assay Value: 10 μM compound, 24 hours; for inhibition at 10 µM: Canis lupus familiaris, MDCK, 24 h
# Method: MDCK cells were seeded at confluency into the wells of a transwell filter in DMEM with 10% fetal bovine serum. Cells were cultured for 24 hours. Test compounds, dissolved in DMSO, were added to each test well to a 10 μM final concentration, and then hepatocyte growth factor (HGF) was then added. The MDCK cells were cultured for 24 hours. Concurrently, controls treated with and without HGF and with no test compounds were also prepared.
# After post-HGF addition culturing, transwell filters were prepared by repeated washing using ice cold PBS. The cells were then fixed with paraformaldehyde (3.7%) on ice for 15 minutes to the filters. After fixation, the transwell filters were washed repeatedly with PBS followed by staining with crystal violet for 15 minutes. The transwell filters were washed again with distilled water.
# The upper surface of the transwell filters were swabbed using a cotton-tipped probe. The filters were photographed using a gel documentation system. Densitometry measurements were made on the test samples and compared with control samples.
smiles,measurement,setting,value
COc1cccc(C2CC(=O)Nc3cc4c(cc32)OCCO4)c1OC (stereo not shown) [Compound 46],Assay Value,Table 2,<5%
O=C(Nc1ccccn1)c1cccc([N+](=O)[O-])c1 [Compound B-8],inhibition at 10 µM,"Table 4, 10 μM compound",45.3%
COc1cc(CNc2cc(C(=O)O)ccc2C)cc(Br)c1OC [Compound A-22],inhibition at 10 µM,"Table 3, 10 μM compound",33.1%
COc1ccc(/C=N/c2ccccc2C(N)=O)cc1 [Compound A-15],inhibition at 10 µM,"Table 3, 10 μM compound",< 5%
COc1cc2c(c(OC)c1)C(c1cc(OC)ccc1OC)CC(=O)N2 (stereo not shown) [Compound 22],Assay Value,Table 1,8.8%
Cc1nc(NC(=O)COc2ccc([N+](=O)[O-])cc2)ccc1Br [Compound B-1],Assay Value,Table 4,97.1%
CCOc1ccccc1C1CC(=O)Nc2cc(OC)c(OC)cc21 (stereo not shown) [Compound 61],Assay Value,Table 2,<5%
COc1ccccc1C1CC(=O)Nc2cc3c(cc21)OCCO3 (stereo not shown) [Compound 38],Assay Value,Table 2,<5%
O=C1CC(c2cc3c(cc2[N+](=O)[O-])OCO3)c2cc3c(cc2N1)CCC3 (stereo not shown) [Compound 91],Assay Value,Table 2,<5%
NC(=O)c1ccccc1/N=C/c1ccc2ccccc2c1 [Compound A-16],Assay Value,Table 3,<5%
Cc1cc(NC(=O)c2ccc(C)c([N+](=O)[O-])c2)c(C)cc1I [Compound B-33],inhibition at 10 µM,"Table 5, 10 μM compound",56.9%
CCN1CCN(c2ccc(NC(=O)c3cc(OC)c(OC)c(OC)c3)cc2Cl)CC1 [Compound B-26],inhibition at 10 µM,"Table 5, 10 μM compound",> 5%
COc1cc2c(cc1OC)C(c1cccc(C)c1)CC(=O)N2 (stereo not shown) [Compound 64],Assay Value,Table 2,<5%
CC(C)c1ccc(C2CC(=O)Nc3cc4c(cc32)OCO4)cc1 (stereo not shown) [Compound 71],Assay Value,Table 2,<5%
COc1ccc(C2CC(=O)Nc3cc4c(cc32)OCCO4)cc1 (stereo not shown) [Compound 24],Assay Value,Table 1,100%
CSc1ccc(C2CC(=O)Nc3cc4c(cc32)OCCO4)cc1 (stereo not shown) [Compound 68],Assay Value,Table 2,<5%
O=C1CC(c2cc(F)cc(F)c2)c2cc3c(cc2N1)OCO3 (stereo not shown) [Compound 77],Assay Value,Table 2,<5%
Cc1c(C(=O)OCc2ccccc2)[nH]c2c1C(=O)CC(c1ccco1)C2 (stereo not shown) [Compound C-15],inhibition at 10 µM,"Table 6, 10 μM compound",< 5%
O=C1CC(c2cc3c(cc2[N+](=O)[O-])OCO3)c2cc3c(cc2N1)CCC3 (stereo not shown) [Compound 93],Assay Value,Table 2,<5%
Cc1cc(C)c(NS(=O)(=O)c2cccc([N+](=O)[O-])c2)c(C)c1 [Compound B-38],inhibition at 10 µM,"Table 5, 10 μM compound",100%
Cc1ccc(C2CC(=O)Nc3cc4c(cc32)OCO4)cc1Br (stereo not shown) [Compound 89],Assay Value,Table 2,<5%
Cc1nc(NC(=O)c2cc([N+](=O)[O-])ccc2N2CCOCC2)ccc1I [Compound B-4],inhibition at 10 µM,"Table 4, 10 μM compound",31.7%
NC(=O)c1ccccc1/N=C/c1cccc(O)c1O [Compound A-5],inhibition at 10 µM,"Table 3, 10 μM compound",48.8%
Cc1c(C(=O)OC2CCCC2C)[nH]c2c1C(=O)CC(c1cccs1)C2 (stereo not shown) [Compound C-12],Assay Value,Table 6,<5%
O=[N+]([O-])c1cccc(S(=O)(=O)Nc2ccc(I)cc2)c1 [Compound B-39],inhibition at 10 µM,"Table 5, 10 μM compound",89.3%
Cc1cc(C)nc(NC(=O)c2cccc([N+](=O)[O-])c2)c1 [Compound B-7],inhibition at 10 µM,"Table 4, 10 μM compound",52.5%
O=C1CC(c2cccc(Cl)c2)c2cc3c(cc2N1)CCC3 (stereo not shown) [Compound 96],Assay Value,Table 2,<5%
Cc1nc(NC(=O)c2ccc(N3CCCC3)c([N+](=O)[O-])c2)ccc1I [Compound B-5],inhibition at 10 µM,"Table 4, 10 μM compound",44%
COc1ccccc1C1CC(=O)Nc2cc(C)c(C)cc21 (stereo not shown) [Compound 34],Assay Value,Table 2,<5%
O=C1CC(c2ccccc2OCc2ccccc2)c2cc3c(cc2N1)OCCO3 (stereo not shown) [Compound 56],Assay Value,Table 2,<5%
COc1ccc(C2CC(=O)Nc3cc4c(cc32)OCO4)cc1Cl (stereo not shown) [Compound 84],Assay Value,Table 2,<5%
COc1cc2c(cc1OC)C(c1cc(C)ccc1C)CC(=O)N2 (stereo not shown) [Compound 57],Assay Value,Table 2,<5%
COc1cc(Br)c(C2CC(=O)Nc3cc(OC)c(OC)cc32)cc1OC (stereo not shown) [Compound 48],Assay Value,Table 2,<5%
COc1cc2c(cc1OC)C(c1ccccc1C)CC(=O)N2 (stereo not shown) [Compound 40],Assay Value,Table 2,<5%
CCOc1ccc(C(=O)Nc2cccc(C)n2)cc1[N+](=O)[O-] [Compound B-9],inhibition at 10 µM,"Table 4, 10 μM compound",34.6%
Cc1c(C(=O)OC2CCCC2)[nH]c2c1C(=O)CC(c1cccs1)C2 (stereo not shown) [Compound C-10],inhibition at 10 µM,"Table 6, 10 μM compound",8.8%
CC(C)c1ccc(/C=N/c2ccccc2C(N)=O)cc1 [Compound A-14],inhibition at 10 µM,"Table 3, 10 μM compound",< 5%
Cc1ccc(C)c(C2CC(=O)Nc3cc4c(cc32)OCO4)c1 (stereo not shown) [Compound 83],Assay Value,Table 2,<5%
Cc1ccc(COC(=O)c2[nH]c3c(c2C)C(=O)CC(c2cccs2)C3)cc1 (stereo not shown) [Compound C-6],inhibition at 10 µM,"Table 6, 10 μM compound",48.4%
COc1cccc(C2CC(=O)Nc3cc4c(cc32)CCC4)c1 (stereo not shown) [Compound 29],Assay Value,Table 1,69.3%
COc1cc(C2CC(=O)Nc3cc4c(cc32)OCCO4)cc(Br)c1OC (stereo not shown) [Compound 6],Assay Value,Table 1,52.2%
COc1cccc(C2CC(=O)Nc3cc4c(cc32)CCC4)c1OC (stereo not shown) [Compound 26],Assay Value,Table 1,90.4%
Cc1cc(C)cc(NS(=O)(=O)c2cccc([N+](=O)[O-])c2)c1 [Compound B-37],inhibition at 10 µM,"Table 5, 10 μM compound",79.9%
O=C1CC(c2ccc3c(c2)OCO3)c2cc3c(cc2N1)OCO3 (stereo not shown) [Compound 88],Assay Value,Table 2,<5%
CCCCOc1ccccc1C1CC(=O)Nc2cc(OC)c(OC)cc21 (stereo not shown) [Compound 47],Assay Value,Table 2,<5%
Cc1nc(NC(=O)c2cccc([N+](=O)[O-])c2)ccc1I [Compound B-3],inhibition at 10 µM,"Table 4, 10 μM compound",95.9%
CC(C)Oc1ccc(C2CC(=O)Nc3cc4c(cc32)OCCO4)cc1 (stereo not shown) [Compound 73],Assay Value,Table 2,<5%
O=C1CC(c2cccc(OCc3ccccc3)c2)c2cc3c(cc2N1)OCCO3 (stereo not shown) [Compound 58],Assay Value,Table 2,<5%
COc1cccc(C(=O)Nc2cccc(C(=O)c3ccccc3)c2)c1 [Compound B-40],inhibition at 10 µM,"Table 5, 10 μM compound",93.1%
CCCc1c(C(=O)OCC)[nH]c2c1C(=O)CC(c1cccs1)C2 (stereo not shown) [Compound C-9],inhibition at 10 µM,"Table 6, 10 μM compound",15.3%
NC(=O)c1ccccc1/N=C/c1ccc2ccccc2c1 [Compound A-6],inhibition at 10 µM,"Table 3, 10 μM compound",> 5%
CCOC(=O)c1[nH]c2c(c1C)C(=O)CC(c1cccc(OC)c1)C2 (stereo not shown) [Compound C-1],inhibition at 10 µM,"Table 6, 10 μM compound",96%
COc1cc(OC)cc(C(=O)Nc2ccc(N3CCCC3)cc2)c1 [Compound B-29],inhibition at 10 µM,"Table 5, 10 μM compound",26.4%
CCOc1ccc(C2CC(=O)Nc3cc4c(cc32)OCCO4)cc1OC (stereo not shown) [Compound 63],Assay Value,Table 2,<5%
O=C1CC(c2ccc([N+](=O)[O-])cc2)c2cc3c(cc2N1)OCCO3 (stereo not shown) [Compound 53],Assay Value,Table 2,<5%
Cc1cc(NC(=O)c2cccc([N+](=O)[O-])c2)ccc1O [Compound B-14],Assay Value,Table 5,34.6%
Cc1ccc(C2CC(=O)Nc3cc4c(cc32)OCCO4)cc1 (stereo not shown) [Compound 54],Assay Value,Table 2,<5%
O=C1CC(c2ccccc2[N+](=O)[O-])c2cc3c(cc2N1)OCCO3 (stereo not shown) [Compound 67],Assay Value,Table 2,<5%
NC(=O)c1ccccc1/N=C/c1cccc(Cl)c1 [Compound A-9],inhibition at 10 µM,"Table 3, 10 μM compound",96.4%
Cc1c(C(=O)OC2CCCC2)[nH]c2c1C(=O)CC(c1ccco1)C2 (stereo not shown) [Compound C-14],inhibition at 10 µM,"Table 6, 10 μM compound",< 5%
COc1cc(Br)c(C2CC(=O)Nc3cc4c(cc32)OCCO4)cc1OC (stereo not shown) [Compound 5],Assay Value,Table 1,29.3%
O=C1CC(c2cc(F)ccc2F)c2cc3c(cc2N1)CCC3 (stereo not shown) [Compound 2],Assay Value,Table 1,90.3%
COc1cccc(C2CC(=O)Nc3cc4c(cc32)CCC4)c1 (stereo not shown) [Compound 99],Assay Value,Table 2,<5%
COC(=O)c1[nH]c2c(c1C)C(=O)CC(c1ccc(OC)cc1)C2 (stereo not shown) [Compound C-16],inhibition at 10 µM,"Table 6, 10 μM compound",< 5%
